PMC10161675, “Study on the absolute configuration and biological activity of rotenoids from the leaves and twigs of Millettia pyrrhocarpa Mattapha, Forest & Hawkins, sp. Nov” (BMC Complementary Medicine and Therapies, 2023)
pEC50: −log10 of the molar value. Values after ≈ are worked out from the molar mass of the structure shown.

Legend:
[1] = test system: V. cholera nonO1/nonO139 DMST 2873; test: Antibacterial activity (MIC/MBC); format: cell-based, V. cholerae; conditions: Vibrio cholerae; for MBC: read-out: Concentration of MBC; for MIC: read-out: Concentration of MIC
Description: (§1) The study on in vitro antibacterial activity was carried out against nine strains (S. aureus ATCC 25923 DMST 8840, E. aerogenes ATCC13048 DMST 8841, E. coli O157: H7 DMST 12743, E. coli Enterotoxigenic, ETEC DMST 30543, E. coli Enteropathogenic, EPEC DMST 30546, S. typhimurium ATCC 13311 DMST 562, S. flexneri DMST 4423, P. mirabilis DMST 8212, and V. cholera nonO1/nonO139 DMST 2873).

[2] = test system: E. coli O157: H7 DMST 12743; test: Antibacterial activity (MIC/MBC); format: cell-based; conditions: Escherichia coli; for MBC: read-out: Concentration of MBC; for MIC: read-out: Concentration of MIC
Description: as §1

[3] = test system: A 549 (Human lung adenocarcinoma); test: Cytotoxicity assay; format: cell-based; conditions: A549
Description: (§2) Cells line materials KKU-M213 (human cholangiocarcinoma) cells were kindly provided by Dr. Banchob Sripa from Liver Fluke and Cholangiocarcinoma Research Center, Department of Pathology, Faculty of Medicine, Khon Kean University. MMNK1 (human cholangiocyte) cells were obtained from the Japanese Collection of Research Bioresources Cell Bank (JCRB, Osaka, Japan). FaDu (human hypopharyngeal carcinoma), HT29 (human colorectal adenocarcinoma), MDA-MB-231 (human mammary gland/breast adenocarcinoma), SH-SY5Y (human neuroblastoma), A549 (human lung carcinoma), and HepG2 (human hepatocellular carcinoma) cell lines were obtained from the American Type Culture Collection (ATCC, Manassas, VA, USA).
(§3) Cytotoxicity assays of the crude extracts and isolated compounds were evaluated according to the standard methods described in previous literature.

[4] = test system: Hep G2 (Human hepatocellular carcinoma); test: Cytotoxicity assay; format: cell-based; conditions: listed as 6aS, 12aS, 12S-elliptinol (1)
Description: as §2, §3

[5] = test system: S. flexneri DMST 4423; test: microbe, parasite or virus in culture; format: cell-based; conditions: Shigella flexneri; for MBC: DMST4423, read-out: Concentration of MBC; for MIC: DMST4423, read-out: Concentration of MIC
Description: as §1

[6] = test system: E. coli Enteropathogenic, EPEC DMST 30546; test: microbe, parasite or virus in culture; format: cell-based; conditions: Escherichia coli; for MBC: read-out: Concentration of MBC
Description: as §1

[7] = test system: E. aerogenes ATCC13048 DMST 8841; test: microbe, parasite or virus in culture; format: cell-based; conditions: Klebsiella aerogenes; for MBC: read-out: Concentration of MBC; for MIC: read-out: Concentration of MIC
Description: as §1

[8] = test system: S. typhimurium ATCC 13311 DMST 562; test: microbe, parasite or virus in culture; format: cell-based; conditions: Salmonella enterica; for MBC: read-out: Concentration of MBC; for MIC: read-out: Concentration of MIC
Description: as §1

[9] = test system: E. coli Enterotoxigenic, ETEC DMST 30543; test: microbe, parasite or virus in culture; format: cell-based; conditions: Escherichia coli; for MBC: read-out: Concentration of MBC
Description: as §1

[10] = test system: S. aureus ATCC 25923 DMST 8840; test: microbe, parasite or virus in culture; format: cell-based; conditions: Staphylococcus aureus; for MBC: ATCC25923, read-out: Concentration of MBC; for MIC: ATCC25923, read-out: Concentration of MIC
Description: as §1

[11] = test system: P. mirabilis DMST 8212; test: microbe, parasite or virus in culture; format: cell-based; conditions: Proteus mirabilis; for MBC: DMST8212, read-out: Concentration of MBC; for MIC: DMST8212, read-out: Concentration of MIC
Description: as §1

[12] = test system: ΔTat/RevMC99 virus in 1A2 cells; test: Anti-syncytium (MC99 + 1A2) cell-based assay for anti-HIV-1; conditions: Human immunodeficiency virus 1, 1A2, read-out: Anti-syncytium (MC99+1A2) EC50
Description: (§4) Anti-HIV1-RT assays of the crude extracts and isolated compounds were evaluated according to the standard methods described in previous literature. Cell-based assays for anti-HIV-1 RT of the crude extracts and isolated compounds were evaluated according to the standard methods described in previous literature
Fig. 4 Anti-syncytium MC99 + 1A2 of crude extracts and pure compounds from leaves and twigs of M. Pyrrhocarpa. ^bAnti-syncytium (MC99 + 1A2) EC50 = dose of compound that reduced 50% syncytium formation by ΔTat/RevMC99 virus in 1A2 cells.

[13] = target: T1, HIV-1 RT (Human immunodeficiency virus type 1 group M subtype B, UniProt P04585); test: Anti-HIV1-RT assay; format: biochemical; conditions: read-out: Anti-HIV-1 RT (% Inhibition)
T1 construct: For determination of IC50 in the HIV-1 RT assay
Description: as §4

Row | SMILES | MBC [1] [µg/mL] | MIC [1] [µg/mL] | MBC [2] [µg/mL] | MIC [2] [µg/mL] | MBC [5] [µg/mL] | MIC [5] [µg/mL] | MBC [6] [µg/mL] | MBC [7] [µg/mL] | MIC [7] [µg/mL] | MBC [8] [µg/mL] | MIC [8] [µg/mL] | MBC [9] [µg/mL] | MBC [10] [µg/mL] | MIC [10] [µg/mL] | MBC [11] [µg/mL] | MIC [11] [µg/mL] | pEC50 [12] | inhibition at 200 µg/mL [13] [%] | melting point [°C] | also measured
1 | COc1cc2c(cc1OC)[C@H]1[C@H](O)c3ccc4occc4c3O[C@@H]1CO2 [Compound 1, 6aS, 12aS, 12S-elliptinol] | > 3000 | 3000 (≈ 8.47 mM) | > 3000 | 3000 (≈ 8.47 mM) | > 3000 | 3000 (≈ 8.47 mM) | > 3000 | > 3000 | 3000 (≈ 8.47 mM) | > 3000 | 3000 (≈ 8.47 mM) | > 3000 | > 3000 | 3000 (≈ 8.47 mM) | > 3000 | 3000 (≈ 8.47 mM) | 5.35 | 0.03 |  | cytotoxicity ED50 [3]: 2.27 µg/mL; cytotoxicity ED50 [4]: 3.97 µg/mL
2 | O=C(N[C@H](CO)[C@H](O)c1ccc([N+](=O)[O-])cc1)C(Cl)Cl [Chloramphenicol, reference compound] | 125 (≈ 0.387 mM) | < 30 | 125 (≈ 0.387 mM) | < 30 | 125 (≈ 0.387 mM) | < 30 |  | 125 (≈ 0.387 mM) | < 30 | 125 (≈ 0.387 mM) | < 35 |  | 125 (≈ 0.387 mM) | < 30 | 31.2 (≈ 0.0966 mM) | < 30 |  |  |  | MIC ([6]; read-out: Concentration of MIC): < 30 µg/mL; MIC ([9]; read-out: Concentration of MIC): < 30 µg/mL
3 | COc1ccc2c(c1)O[C@@H]1COc3cc(OC)c(OC)cc3[C@H]1[C@@H]2O [Compound 2, 6aS, 12aS, 12S-munduserol] | > 3000 | 3000 (≈ 8.71 mM) | > 3000 | 3000 (≈ 8.71 mM) | > 3000 | 3000 (≈ 8.71 mM) | > 3000 | > 3000 | 3000 (≈ 8.71 mM) | > 3000 | 3000 (≈ 8.71 mM) | > 3000 | > 3000 | 3000 (≈ 8.71 mM) | > 3000 | 3000 (≈ 8.71 mM) | 5.30 | 8.98 | 240 to 241 | 
4 | COc1ccc2c(=O)c3c(oc2c1)COc1cc(OC)c(OC)cc1-3 [Compound 3, dehydromunduserone] | > 3000 | 3000 (≈ 8.81 mM) | > 3000 | 3000 (≈ 8.81 mM) | > 3000 | 3000 (≈ 8.81 mM) | > 3000 | > 3000 | 3000 (≈ 8.81 mM) | > 3000 | 3000 (≈ 8.81 mM) | > 3000 | > 3000 | 3000 (≈ 8.81 mM) | > 3000 | 3000 (≈ 8.81 mM) | 4.04 | 0 | 202 to 204 | 
